# Measured values published in patent US5198552A, “Indole derivative having antiviral, interferon-inducing and immunomodulatory effects” (priority 1991, dated 1993).
# Structures can show the parent of a compound that is named as a salt. Where two headings read alike, the source gives them in different places.
# How the values were obtained:
# peritoneal macrophages = experiment: Absorbing capacity of mouse peritoneal macrophages (neutral red); format: in vivo, mice
# antibody-producing cells = experiment: Antibody-producing cells in the spleen of mice immunized with sheep erythrocytes; format: in vivo
# stem cells = experiment: Inactivation of stem cells with allogenic lymphocytes (graft versus host, spleen endocolonies); format: in vivo, mice
# interferon [1] = settings: cell culture; cited from earlier work
# interferon [2] = settings: mouse blood serum; cited from earlier work
# interferon [3] = settings: human blood serum; cited from earlier work
# [4] = cited from earlier work
# influenza A/B viruses [5] = format: cell-based
# influenza B virus = experiment: Activity against influenza B virus; format: cell-based; settings: hydrochloride
# Procedure: The antiviral effect of the preparation against influenza A/B viruses was tested on a hen embryo fabroblast cell culture.
# influenza A virus = experiment: Activity against influenza A virus; format: cell-based
# influenza A/B viruses [6] = experiment: Medicinal effect on experimental influenzal pneumonia of mice induced by influenza A/B viruses; format: in vivo
# influenza viruses = experiment: Virucidal action on influenza viruses
# [7] = Maximum tolerable concentration for chick embryo fibroblasts; format: cell-based; settings: chicken
# [8] = in vivo; cited from earlier work
# in vivo = settings: mouse, po
# [9] = 1 day after single administration
# [10] = 2 day after single administration
# [11] = 3 day after single administration
smiles,measurement,setting,value
"c1ccc([C@H]2CN3CCSC3=N2)cc1 [Levamisole, (-) 2,3,5,6,-tetrahydro-6-phenylimidazo-/2.1.b/-thiazole hydrochloride, reference compound]",Absorbing Capacity of Peritoneal Macrophages,peritoneal macrophages; [9],24.2 ± 4.5 mg/6 × 10^6 cells
same,"Absorbing Capacity, percent of control",peritoneal macrophages; [9],116 ± 21%
same,Absorbing Capacity of Peritoneal Macrophages,peritoneal macrophages; [10],27.7 ± 3.2 mg/6 × 10^6 cells
same,"Absorbing Capacity, percent of control",peritoneal macrophages; [10],121 ± 14%
same,Absorbing Capacity of Peritoneal Macrophages,peritoneal macrophages; [11],32.5 ± 2.4 mg/6 × 10^6 cells
same,"Absorbing Capacity, percent of control",peritoneal macrophages; [11],135 ± 9.9%
same,absorbing capacity of macrophages,"peritoneal macrophages; by 2-3 days after a single administration, p<0.05",138±11%
same,effect on counts of macrophages washed off the peritoneal cavity,"peritoneal macrophages; mouse, in vivo",no effect on counts of macrophages
same,immunopotentiating effect on tumor-carrier animals,"antibody-producing cells; 7-17 day of tumor development, single (3 days prior to immunization) or 5-times daily",inefficient
same,Antibody-producing cells in spleen (% of control),"antibody-producing cells; intact mice, 5 times at a 5-day interval",170 ± 15.1%
same,Antibody-producing cells in spleen (% of control),"antibody-producing cells; intact mice, during 3 days, daily",164 ± 6.1%
same,immunostimulating effect on irradiated animals,antibody-producing cells; irradiated animals,of low efficacy
same,Antibody-producing cells in spleen (% of control),"antibody-producing cells; totally irradiated (2 Gr.), 5 times at a 5-day interval",104 ± 6.0%
same,Antibody-producing cells in spleen (% of control),"antibody-producing cells; totally irradiated (2 Gr.), during 3 days, daily",174 ± 24.0%
same,immunopotentiating effect on totally irradiated tumor-carrier animals,antibody-producing cells; totally irradiated tumor-carriers,also had the immunopotentiating effect
same,Antibody-producing cells in spleen (% of control),"antibody-producing cells; totally irradiated tumor-carriers (2 Gr.), 5 times at a 5-day interval",402 ± 12.5%
same,Antibody-producing cells in spleen (% of control),"antibody-producing cells; totally irradiated tumor-carriers (2 Gr.), during 3 days, daily",86.0 ± 35.0%
same,Antibody-producing cells in spleen (% of control),"antibody-producing cells; tumor-carriers, 5 times at a 5-day interval",91 ± 14.0%
same,Antibody-producing cells in spleen (% of control),"antibody-producing cells; tumor-carriers, during 3 days, daily",14 ± 23.0%
same,The counts of spleen endocolonies (M ± m),stem cells; 1.25 × 10^6 lymphocytes,2.3 ± 0.5
same,The counts of spleen endocolonies (M ± m),stem cells; 2.5 × 10^6 lymphocytes,1.1 ± 0.2
same,The counts of spleen endocolonies (M ± m),stem cells; 5.0 × 10^6 lymphocytes,0.7 ± 0.2
same,The counts of spleen endocolonies (M ± m),"stem cells; no lymphocytes given, hydrochloride",1.1 ± 0.3
same,The counts of spleen endocolonies (M ± m),"stem cells; no lymphocytes given, listed as levamisole, hydrochloride",somewhat decreases the yield of the spleen colonies
same,effect on yield of spleen colonies under graft versus host conditions,"stem cells; preparation 100 mg per 1 kg orally, levamisole 5 mg per 1 kg",identical but a less pronounced effect
same,interferon titers,interferon [1],80-160 U/ml
same,interferon titers,interferon [2],160-320 U/ml
same,interferon titers,interferon [3],40-80 U/ml
same,side-effects,[4]; in vivo,"a headache, sleep disturbances, olfactory hallicinations (odour changes), allergic skin hypersensitivity, influenza-like and neurologic symptoms"
same,toxicity,[4]; in vivo,highly toxic
same,agranulocytosis: decrease of neutrophile to a value,[4]; treatment as an immunomodulator,below 25%
"CC(N)C12CC3CC(CC(C3)C1)C2 (stereo not shown) [Remantadine, alfa-methyl-1-adamantanemethylamine hydrochloride]",inhibition of influenza A/B virus reproduction / chemotherapeutical effect,influenza A/B viruses [5],Inhibits the reproduc-
same,efficacy against influenza B virus,influenza B virus,It is inefficient against
same,efficacy against influenza B virus,influenza B virus; listed as remantadine,inefficient against influenza B virus
same,efficacy against influenza A virus,influenza A virus,efficient only against influenza A virus
same,medicinal (chemotherapeutical) effect on influenzal pneumonia,influenza A/B viruses [6],Exert a medicinal effect
same,virucidal action on influenza viruses,influenza viruses,No virucidal action
same,MNTC,[7],20 µg/mL
same,side-effect,[8],side-effect on a central nervous system
same,LD50,in vivo,340 mg/kg
